Values belong to the molecule of their own block, whether it stands above or below them. Calls of active or inactive are those of the source. No cut-off for these calls is given here. Starred links: 1 amine or outer side, 2 acyl side, 3 side chain; linkers in the order of their positions; H or OH if unused. Positions of bridges follow the written chain, without caps; N, C: chain ends. Non-standard residues stand in square brackets, D forms with d. Residues, ends and D or L forms follow the SMILES beside them. Chains are numbered I, II in the order given. Actinocin(1to9) = Cc1c2oc3c(C)ccc(C(=O)[*:2])c3nc-2c(C(=O)[*:1])c(N)c1=O; NMeV = CN[C@H](C(=O)O)C(C)C; Sar = CNCC(=O)O
What was measured:
[1] = test system: LS174T; assay: Antiproliferative activity against LS174T cells; format: functional, cell-based; conditions: Homo sapiens
[2] = test system: A549; assay: Antiproliferative activity against A549 cells; format: functional, cell-based; conditions: Homo sapiens
[3] = molecular target: Cyclin-dependent kinase 2/cyclin A (Homo sapiens, UniProt P24941); assay: Inhibition of Cdk2/Cyclin A; format: protein-complex assay
[4] = molecular target: Cyclin-dependent kinase 4/cyclin D1 (Homo sapiens, UniProt P11802); assay: Inhibition of Cdk4/Cyclin D1; format: protein-complex assay
[5] = test system: PC-3; assay: Antiproliferative activity against PC3 cells; format: functional, cell-based; conditions: Homo sapiens
[6] = test system: Calf thymus DNA; assay: Ability to displace ethidium bromide from DNA; format: nucleic-acid assay
[7] = test system: Calu-1; assay: Antiproliferative activity against Calu1 cells; format: functional, cell-based; conditions: Homo sapiens
[8] = test system: Calf thymus DNA; assay: Ability to displace ethidium bromide from DNA at 100 uM; format: nucleic-acid assay
[9] = test system: Calu-1; assay: Ratio of cell cycle arrest in serum-starved Calu1 cells at G0/G1phase to S phase after 24 hrs by FACS analysis; format: functional, Homo sapiens
[10] = species: Homo sapiens; assay: Selectivity for Cdk4/Cyclin D1 over Cdk2/Cyclin A
[11] = test system: Calu-1; assay: Cell cycle arrest in serum-starved Calu1 cells by accumulation at G2/M phase after 24 hrs by FACS analysis; format: functional, Homo sapiens
[12] = molecular target: T1, DNA topoisomerase 1 (Homo sapiens) (UniProt P11387); assay: Inhibition of DNA relaxation catalysed by topoisomerase1 at 100 uM; format: functional
T1 sequence (whole entry): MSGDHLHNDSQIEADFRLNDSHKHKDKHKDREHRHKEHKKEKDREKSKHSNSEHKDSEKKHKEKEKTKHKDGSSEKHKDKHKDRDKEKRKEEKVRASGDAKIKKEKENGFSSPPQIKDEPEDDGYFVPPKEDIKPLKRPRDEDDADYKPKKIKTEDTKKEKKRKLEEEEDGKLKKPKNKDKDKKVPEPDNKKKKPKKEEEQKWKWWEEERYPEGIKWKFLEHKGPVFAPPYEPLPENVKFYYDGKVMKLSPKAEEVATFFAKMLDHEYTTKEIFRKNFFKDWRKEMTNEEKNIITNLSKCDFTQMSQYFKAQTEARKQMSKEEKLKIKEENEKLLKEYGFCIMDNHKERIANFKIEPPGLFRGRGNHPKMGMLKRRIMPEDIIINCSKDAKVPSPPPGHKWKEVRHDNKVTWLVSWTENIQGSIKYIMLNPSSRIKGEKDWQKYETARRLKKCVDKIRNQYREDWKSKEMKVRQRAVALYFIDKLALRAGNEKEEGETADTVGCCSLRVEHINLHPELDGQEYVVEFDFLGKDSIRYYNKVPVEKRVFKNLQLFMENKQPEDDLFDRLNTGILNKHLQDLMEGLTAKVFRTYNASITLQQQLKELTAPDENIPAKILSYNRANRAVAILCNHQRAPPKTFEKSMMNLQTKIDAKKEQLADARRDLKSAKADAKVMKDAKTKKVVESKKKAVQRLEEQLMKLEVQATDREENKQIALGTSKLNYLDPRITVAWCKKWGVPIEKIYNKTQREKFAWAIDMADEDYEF

[13] = test system: Calu-1; assay: Cell cycle arrest in serum-starved Calu1 cells by accumulation at G0/G1 phase after 24 hrs by FACS analysis; format: functional, Homo sapiens
[14] = molecular target: Cyclin-dependent kinase 4 (Homo sapiens) (UniProt P11802); assay: Inhibition of Cdk4-mediated phosphorylation of pRB in Calu1 cells at ser 795 residue after 24 hrs by Western blot analysis; format: functional, cell-based; conditions: Calu-1
[15] = molecular target: Cyclin-dependent kinase 4 (Homo sapiens) (UniProt P11802); assay: Inhibition of Cdk4-mediated phosphorylation of pRB in Calu1 cells at ser […] residue at 6.2 uM after 24 hrs by Western blot analysis; format: functional, cell-based; conditions: Calu-1
[16] = molecular target: T1, DNA topoisomerase 1 (Homo sapiens); assay: Inhibition of DNA relaxation catalysed by topoisomerase1 at 10 uM; format: functional
[17] = molecular target: Cyclin-dependent kinase 4 (Homo sapiens) (UniProt P11802); assay: Inhibition of Cdk4-mediated phosphorylation of pRB in Calu1 cells at ser 780 residue at 6.2 uM after 24 hrs by Western blot analysis; format: functional, cell-based; conditions: Calu-1
[18] = molecular target: Cyclin-dependent kinase 4 (Homo sapiens) (UniProt P11802); assay: Inhibition of Cdk4-mediated phosphorylation of pRB in Calu1 cells at ser 780 residue after 24 hrs by Western blot analysis; format: functional, cell-based; conditions: Calu-1
[19] = molecular target: Cyclin-dependent kinase 4 (Homo sapiens) (UniProt P11802); assay: Inhibition of Cdk4-mediated phosphorylation of pRB in Calu1 cells at ser […] residue after 24 hrs by Western blot analysis; format: functional, cell-based; conditions: Calu-1
[20] = test system: Calu-1; assay: Cell cycle arrest in serum-starved Calu1 cells by accumulation at S phase after 24 hrs by FACS analysis; format: functional, Homo sapiens
[21] = molecular target: Cyclin-dependent kinase 4 (Homo sapiens) (UniProt P11802); assay: Inhibition of Cdk4-mediated phosphorylation of pRB in Calu1 cells at ser 795 residue at 6.2 uM after 24 hrs by Western blot analysis; format: functional, cell-based; conditions: Calu-1

Chain of Cyclin-dependent kinase 4/cyclin D1 (P11802 whole entry): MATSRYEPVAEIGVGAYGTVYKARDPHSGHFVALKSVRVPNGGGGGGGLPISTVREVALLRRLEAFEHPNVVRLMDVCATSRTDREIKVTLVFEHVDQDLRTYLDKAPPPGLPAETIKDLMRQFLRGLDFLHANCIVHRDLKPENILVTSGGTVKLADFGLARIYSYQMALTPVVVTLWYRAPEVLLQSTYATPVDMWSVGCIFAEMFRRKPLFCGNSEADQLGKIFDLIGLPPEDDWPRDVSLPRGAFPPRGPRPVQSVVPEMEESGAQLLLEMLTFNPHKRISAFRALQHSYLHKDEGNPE
Chain of Cyclin-dependent kinase 4/cyclin D1 (P24385 whole entry, further chain): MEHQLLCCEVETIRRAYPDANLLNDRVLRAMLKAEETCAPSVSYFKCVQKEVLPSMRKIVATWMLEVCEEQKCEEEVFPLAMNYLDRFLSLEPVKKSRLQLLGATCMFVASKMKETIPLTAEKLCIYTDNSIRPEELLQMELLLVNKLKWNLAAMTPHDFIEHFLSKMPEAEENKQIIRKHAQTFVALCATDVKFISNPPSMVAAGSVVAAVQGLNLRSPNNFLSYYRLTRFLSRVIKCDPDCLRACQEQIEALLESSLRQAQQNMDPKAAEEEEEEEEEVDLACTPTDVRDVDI
Chain of Cyclin-dependent kinase 4 (Homo sapiens) (P11802 whole entry): as the sequence (P11802 whole entry) above

Structure (SMILES): CN(CCc1c[nH]c2ccccc12)C(=O)c1ccccc1Br
IC50 [1]: 76 µM | IC50 [2]: 95 µM | IC50 [3]: 584 µM | IC50 [4]: 95 µM | IC50 [5]: 59 µM | Activity [6]: inactive | IC50 [7]: 122 µM

Structure (SMILES): CN(CCc1c[nH]c2ccccc12)C(=O)c1ccc(C(C)(C)C)cc1
IC50 [1]: 18 µM | IC50 [2]: 12 µM | IC50 [3]: 658 µM | IC50 [4]: 49 µM | IC50 [5]: 15 µM | Activity [6]: inactive | IC50 [7]: 52 µM

Structure (SMILES): CN(CCc1c[nH]c2ccccc12)C(=O)c1ccc(Br)cc1
IC50 [1]: 52 µM | IC50 [2]: 55 µM | IC50 [3]: 580 µM | IC50 [4]: 37 µM | IC50 [5]: 36 µM | Activity [6]: inactive | IC50 [7]: 64 µM

Structure (SMILES): CN(CCc1c[nH]c2ccccc12)C(=O)c1ccccc1
IC50 [1]: 83 µM | IC50 [2]: 95 µM | IC50 [3]: 1520 µM | IC50 [4]: 88 µM | IC50 [5]: 86 µM | Activity [6]: inactive | IC50 [7]: 104 µM

Structure (SMILES): COc1cccc(C(=O)N(C)CCc2c[nH]c3ccccc23)c1
IC50 [1]: 109 µM | IC50 [2]: 95 µM | IC50 [3]: 938 µM | IC50 [4]: 81 µM | IC50 [5]: 85 µM | Activity [6]: inactive | IC50 [7]: 139 µM

Structure (SMILES): CN(CCc1c[nH]c2ccccc12)C(=O)c1ccc(Cl)cc1
IC50 [1]: 42 µM | IC50 [2]: 27 µM | IC50 [3]: 731 µM | IC50 [4]: 38 µM | IC50 [5]: 47 µM | Activity [6]: inactive | IC50 [7]: 78 µM

IC50 [6]: 35 µM
Structure (SMILES): Cc1c2oc3c(C)ccc(C(=O)N[C@@H]4C(=O)N[C@H](C(C)C)C(=O)N5CCC[C@H]5C(=O)N(C)CC(=O)N(C)[C@@H](C(C)C)C(=O)O[C@@H]4C)c3nc-2c(C(=O)N[C@@H]2C(=O)N[C@H](C(C)C)C(=O)N3CCC[C@H]3C(=O)N(C)CC(=O)N(C)[C@@H](C(C)C)C(=O)O[C@@H]2C)c(N)c1=O [DACTINOMYCIN] (I: T[dV]P[Sar][NMeV] / II: T[dV]P[Sar][NMeV]; ester I:1-I:C, II:1-II:C; linker I:N-II:N via Actinocin(1to9))

Structure (SMILES): CN(CCc1c[nH]c2ccccc12)C(=O)c1cccc(Cl)c1
IC50 [1]: 118 µM | IC50 [2]: 95 µM | IC50 [3]: 1120 µM | IC50 [4]: 109 µM | IC50 [5]: 94 µM | Activity [6]: inactive | IC50 [7]: 123 µM

Structure (SMILES): CN(CCc1c[nH]c2ccccc12)C(=O)c1ccc(F)cc1
IC50 [1]: 87 µM | IC50 [2]: 102 µM | IC50 [3]: 850 µM | IC50 [4]: 59 µM | IC50 [5]: 94 µM | Activity [6]: inactive | IC50 [7]: 141 µM

Structure (SMILES): Cc1ccccc1C(=O)N(C)CCc1c[nH]c2ccccc12
IC50 [1]: 105 µM | IC50 [2]: 110 µM | IC50 [3]: 1130 µM | IC50 [4]: 113 µM | IC50 [5]: 92 µM | Activity [6]: inactive | IC50 [7]: 141 µM

Structure (SMILES): CN(CCc1c[nH]c2ccccc12)C(=O)c1ccc(-c2ccccc2)cc1
IC50 [1]: 3.5 µM | Activity [8]: < 5% | IC50 [2]: 3.5 µM | IC50 [3]: 521 µM | IC50 [4]: 6.2 µM | Ratio [9]: 16 | IC50 [5]: 6.2 µM | Selectivity ratio [10]: 100 | Activity [11]: 30% | Activity [6]: inactive | Activity [12]: inactive | Activity [13]: 64% | Activity [14]: Active | Activity [15]: Active | Activity [16]: inactive | Activity [17]: Active | Activity [18]: Active | Activity [19]: Active | IC50 [7]: 11.5 µM | Activity [20]: 4% | Activity [21]: Active

Structure (SMILES): Cc1ccc(C(=O)N(C)CCc2c[nH]c3ccccc23)cc1
IC50 [1]: 82 µM | IC50 [2]: 92 µM | IC50 [3]: 790 µM | IC50 [4]: 63 µM | IC50 [5]: 55 µM | Activity [6]: inactive | IC50 [7]: 103 µM

Structure (SMILES): CN(CCc1c[nH]c2ccccc12)C(=O)c1ccccc1F
IC50 [1]: 110 µM | IC50 [2]: 103 µM | IC50 [3]: 1230 µM | IC50 [4]: 103 µM | IC50 [5]: 108 µM | Activity [6]: inactive | IC50 [7]: 145 µM

Structure (SMILES): CN(CCc1c[nH]c2ccccc12)C(=O)c1ccccc1Cl
IC50 [1]: 99 µM | IC50 [2]: 96 µM | IC50 [3]: 784 µM | IC50 [4]: 46 µM | IC50 [5]: 92 µM | Activity [6]: inactive | IC50 [7]: 147 µM

Structure (SMILES): Cc1cccc(C(=O)N(C)CCc2c[nH]c3ccccc23)c1
IC50 [1]: 88 µM | IC50 [2]: 96 µM | IC50 [3]: 830 µM | IC50 [4]: 78 µM | IC50 [5]: 81 µM | Activity [6]: inactive | IC50 [7]: 136 µM

Structure (SMILES): COc1ccccc1C(=O)N(C)CCc1c[nH]c2ccccc12
IC50 [1]: 106 µM | IC50 [2]: 103 µM | IC50 [3]: 849 µM | IC50 [4]: 79 µM | IC50 [5]: 89 µM | Activity [6]: inactive | IC50 [7]: 146 µM

Structure (SMILES): CN(CCc1c[nH]c2ccccc12)C(=O)c1cccc(Br)c1
IC50 [1]: 89 µM | IC50 [2]: 91 µM | IC50 [3]: 635 µM | IC50 [4]: 74 µM | IC50 [5]: 66 µM | Activity [6]: inactive | IC50 [7]: 144 µM

Structure (SMILES): CN(CCc1c[nH]c2ccccc12)C(=O)c1cccc(F)c1
IC50 [1]: 97 µM | IC50 [2]: 106 µM | IC50 [3]: 765 µM | IC50 [4]: 88 µM | IC50 [5]: 98 µM | Activity [6]: inactive | IC50 [7]: 136 µM
